Laboratory results: patent publication US6350773B1, “Therapeutic combinations of (S)-2-(benzylamino-methyl)-2,3,8,9,-tetrahydro 7H-1,4-dioxino{2,3-e}indol-8-one and neuroleptics for the treatment or prevention of psychotic disorders” (American Home Products Corporation, priority 1999, dated 2002)

Assays:
[1] = tested on: haloperidol-induced catalepsy in rats; test: Reversal of haloperidol-induced catalepsy in rats; type: in vivo, Sprague-Dawley rats; conditions: haloperidol 3 mg/kg i.p.
Experimental: FIG. 1 is a schematic representation of the effect of (S)-2-(benzylaminomethyl)-2,3,8,9-tetrahydro-7H-1,4-dioxino[2,3-e]indol-8-one (agent) on haloperidol-induced catalepsy in rats at 60 minutes after drug treatment, the time point of greatest reversal as measured by seconds spent in catelepsy over a dose range of 0.003 to 3 mg/kg s.c. of agent. The data are means±SEM.
Tests for reversal of haloperidol-induced catalepsy in rats were conducted according to a variation of the methods of Svensson et al., Neuropharmacology, 1993, 32:1037-1045. Rats (200-250 g) were transported from the colony room to the experimental room and held there for the duration of the experiment. Haloperidol, dissolved in 0.25% Tween 80®, was administered to all animals at a dose of 3 mg/kg i.p. Sixty minutes later, (S)-2-(benzylamino-methyl)-2,3,8,9-tetrahydro-7H-1,4-dioxino[2,3-e]indol-8-one, also dissolved in 0.25% Tween 80®, was administered s.c. at 4 dose levels to 6 male Sprague-Dawley rats per dose level. A control group, assessed simultaneously with (S)-2-(benzylamino-methyl)-2,3,8,9-tetrahydro-7H-1,4-dioxino[2,3-e]indol-8-one treated groups, received a vehicle (VEH) injection of 0.25% Tween 80® at equal volumes (1 ml/kg). Animals were assessed for catalepsy at 30, 60, 90 and 120 minutes after drug administration by placing the animal's forepaws on a wooden cube (8×8×8 cm). The time that the animal remained with at least one of the forepaws on the cube was measured (maximum=60 sec). The righting reflex was then tested and used to discard sedated subjects. Data were analyzed using a two-factor analysis of variance with one repeated measure. A subsequent least significant difference from control test (p<0.05) was used to determine the minimal effective dose (MED) for reversing haloperidol-induced catalepsy and to determine time of onset. A trend test was then used to determine at which time points (if any) there was a dose-related effect. […]

[2] = tested on: d-amphetamine induced hyperactivity in mice; test: Antagonism of d-amphetamine-induced hyperlocomotion in mice; type: in vivo; conditions: d-amphetamine 2.5 mg/kg i.p.
Experimental: FIG. 3 is a schematic representation of the effect of (S)-2-(Benzylamino-methyl)-2,3,8,9-tetrahydro-7H-1,4-dioxino[2,3-e]indol-8-one (agent) to reverse d-amphetamine induced hyperactivity in mice. The data are expressed as a percentage of the activity level (horizontal activity counts) observed in mice treated with d-amphetamine alone for eight doses ranging from 0.0001 to 1 mg/kg s.c. of agent. The data are presented as means±SEM.
The ability to antagonize amphetamine-induced hyperlocomotion was tested according to a modified version of the methods of Riffee and Wilcox, Psychopharmacology, 1985, 85:97-101. Mice (25-30 g) were transported from the colony room to the experimental room and held there for the duration of the experiment. […] Control groups, assessed simultaneously with drug-treated groups, received vehicle at equal volumes (10 ml/kg). […] Activity was monitored for 30 minutes with lights on using Omnitech Digiscan® (Columbus, Ohio) infrared monitors. Each infrared beam break was counted by the automated system and totaled at 10 minute intervals. […]
FIG. 3 is a schematic representation of the effect of (S)-2(Benzylamino-methyl)-2,3,8,9-tetrahydro-7H-1,4-dioxino[2,3-e]indol-8-one (agent) to reverse d-amphetamine induced hyperactivity in mice. The data are expressed as a percentage of the activity level observed in mice treated with d-amphetamine alone and are presented as means±SEM.

catalepsy in rats = test: Cataleptogenic potential in rats (no haloperidol); type: in vivo; conditions: 0.003 to 3 mg/kg s.c., 60 min post dosing, similar at the other time points

O=C1Cc2c(ccc3c2O[C@@H](CNCc2ccccc2)CO3)N1 [(S)-2-(benzylamino-methyl)-2,3,8,9-tetrahydro-7H-1,4-dioxino[2,3-e]indol-8-one]
ED50 ([1]; Rattus norvegicus, 1 h, agent s.c., 60 minutes after drug treatment (time point of greatest reversal), read-out: ED50 (dose producing 50% reduction in maximal response), reversal of haloperidol-induced catalepsy): 0.08 mg/kg
time spent in catalepsy position ([1]; agent 0.003 to 3 mg/kg s.c., 60 minutes after drug treatment): dose-dependent decrease
MED (minimal effective dose) for reversing haloperidol-induced catalepsy ([1]; agent s.c. 60 min later, 60 minutes after drug treatment): 0.3 mg/kg
ED50 ([2]; Mus musculus, agent s.c., horizontal activity counts 10-20 min, read-out: ED50 (dose producing 50% reduction in activity), d-amphetamine-induced hyperactivity): 0.002 mg/kg
d-amphetamine-induced hyperactivity (horizontal activity counts, % of d-amphetamine alone) ([2]; agent 0.0001 to 1 mg/kg s.c.): dose-dependent decreased
ability to induce catalepsy (catalepsy in rats): lack of ability of the agent to induce significant catalepsy
